Data from patent US9067977B2, “Peptides derivatized with A-B-C-D- and their therapeutical use” (Novo Nordisk A/S, priority 2007, dated 2015).
Starred links: 1 amine or outer side, 2 acyl side, 3 side chain; linkers in the order of their positions; H or OH if unused. Non-standard residues stand in square brackets, D forms with d. Residues, ends and D or L forms follow the SMILES beside them. Groups on a side chain read outwards from the residue. *: point of attachment. C20 diacid = O=C(O)CCCCCCCCCCCCCCCCCCC(=O)*; C18 diacid = O=C(O)CCCCCCCCCCCCCCCCC(=O)*; d(βAsp) = O=C(O)[C@@H](CC(=O)[*:2])N[*:1]; γGlu = O=C(O)[C@H](CCC(=O)[*:2])N[*:1]; 2Nal = N[C@@H](Cc1ccc2ccccc2c1)C(=O)O; Desaminohistidyl = O=C(CCc1c[nH]cn1)*; AEEA = NCCOCCOCC(=O)O; Aib = CC(C)(N)C(=O)O; Inp = O=C(O)C1CCNCC1; Bn = c1ccc(C*)cc1

Molecular target: human serum albumin (HSA) (Homo sapiens, UniProt P02768)
Sequence (P02768 25-609): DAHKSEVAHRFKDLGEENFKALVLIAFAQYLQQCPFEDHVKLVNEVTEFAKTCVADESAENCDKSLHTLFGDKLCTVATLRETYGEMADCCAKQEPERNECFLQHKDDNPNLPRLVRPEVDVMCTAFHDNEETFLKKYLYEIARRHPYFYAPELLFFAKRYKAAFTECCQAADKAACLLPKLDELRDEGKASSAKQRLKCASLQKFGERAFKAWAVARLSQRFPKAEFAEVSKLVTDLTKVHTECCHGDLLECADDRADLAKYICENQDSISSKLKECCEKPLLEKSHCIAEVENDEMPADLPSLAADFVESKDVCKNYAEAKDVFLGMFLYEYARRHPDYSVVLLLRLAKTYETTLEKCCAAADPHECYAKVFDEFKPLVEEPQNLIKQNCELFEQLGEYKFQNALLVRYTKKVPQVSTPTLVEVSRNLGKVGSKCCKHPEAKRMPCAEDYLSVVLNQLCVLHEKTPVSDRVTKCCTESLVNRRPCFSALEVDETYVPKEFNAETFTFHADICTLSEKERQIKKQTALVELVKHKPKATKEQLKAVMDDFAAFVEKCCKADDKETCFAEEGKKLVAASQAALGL
Assay: Albumin binding affinity, competition scintillation proximity assay
Details: for EC50 at 20 h: human, biotinylated human serum albumin on streptavidin-SPA beads, pH 7.4
Experimental: Streptavidin-SPA beads (GE Healthcare RPNQ0009) were incubated with biotinylated HSA for 5 hours. The beads were washed with buffer to remove unbound HSA. […] After 20 hours of gentle rocking at room temperature the plates were centrifuged and counted on a TopCounter.

| SMILES | EC50 | EC50 at 20 h |
| --- | --- | --- |
| CC[C@H](C)[C@H](NC(=O)[C@H](Cc1ccccc1)NC(=O)[C@H](CCC(=O)O)NC(=O)[C@H](CCCNC(=N)N)NC(=O)[C@H](C)NC(=O)[C@H](C)NC(=O)[C@H](CCC(N)=O)NC(=O)CNC(=O)[C@H](CCC(=O)O)NC(=O)[C@H](CCCCNC(=O)COCCOCCNC(=O)COCCOCCNC(=O)C[C@@H](NC(=O)C1CCN(C(=O)CCCCCCCCCCCCCCCCC(=O)O)CC1)C(=O)O)NC(=O)[C@H](Cc1ccc(O)cc1)NC(=O)[C@H](CO)NC(=O)[C@H](CO)NC(=O)[C@@H](NC(=O)[C@H](CC(=O)O)NC(=O)[C@H](CO)NC(=O)[C@@H](NC(=O)[C@H](Cc1ccc2ccccc2c1)NC(=O)[C@@H](NC(=O)CNC(=O)[C@H](CCC(=O)O)NC(=O)C(C)(C)NC(=O)[C@@H](N)Cc1c[nH]cn1)[C@@H](C)O)[C@@H](C)O)C(C)C)C(=O)N[C@@H](CCC(=O)O)C(=O)N[C@@H](Cc1c[nH]c2ccccc12)C(=O)N[C@@H](CC(C)C)C(=O)N[C@H](C(=O)N[C@@H](CCCCN)C(=O)NCC(=O)N[C@@H](CCCNC(=N)N)C(=O)NCC(N)=O)C(C)C [Example 13, N-ε^20({2-[2-(2-{2-[2-((R)-3-carboxy-3-{[1-(17-carboxyheptadecanoyl)piperidine-4-carbonyl]amino}propionylamino)ethoxy]ethoxy}acetylamino)ethoxy]ethoxy}acetyl) [Aib^8,Lys^20,Arg^26,2-Naphtylalanine^12, Glu^30]GLP-1-(7-37)amide] (H-H[Aib]EGT[2Nal]TSDVSSYK([AEEA-AEEA-d(βAsp)-Inp-C18 diacid])EGQAAREFIEWLVKGRG-NH2; N-terminus assumed) | 150 to 300 nM | – |
| CC[C@H](C)[C@H](NC(=O)[C@H](Cc1ccccc1)NC(=O)[C@H](CCC(=O)O)NC(=O)[C@H](CCCNC(=N)N)NC(=O)[C@H](C)NC(=O)[C@H](C)NC(=O)[C@H](CCC(N)=O)NC(=O)[C@H](CCC(=O)O)NC(=O)[C@H](CCC(=O)O)NC(=O)[C@H](CC(C)C)NC(=O)[C@H](Cc1ccc(O)cc1)NC(=O)[C@H](CO)NC(=O)[C@H](CO)NC(=O)[C@@H](NC(=O)[C@H](CC(=O)O)NC(=O)[C@H](CO)NC(=O)[C@@H](NC(=O)[C@H](Cc1ccccc1)NC(=O)[C@@H](NC(=O)CNC(=O)[C@H](CCC(=O)O)NC(=O)[C@H](C)NC(=O)CCc1c[nH]cn1)[C@@H](C)O)[C@@H](C)O)C(C)C)C(=O)N[C@@H](C)C(=O)N[C@@H](Cc1c[nH]c2ccccc12)C(=O)N[C@@H](CC(C)C)C(=O)N[C@H](C(=O)N[C@@H](CCCNC(=N)N)C(=O)NCC(=O)N[C@@H](CCCNC(=N)N)C(=O)NCC(=O)N[C@@H](CCCCNC(=O)COCCOCCNC(=O)CC[C@H](NC(=O)C1CCN(C(=O)CCCCCCCCCCCCCCCCCCC(=O)O)CC1)C(=O)O)C(=O)O)C(C)C [Example 55, [DesaminoHis7,Glu22,Arg26,34]-GLP-1 (7-37)-Lys-(2-{2-[2-((S)-4-carboxy-4-{[1-(19-carboxynonadecanoyl)piperidine-4-carbonyl]amino}butyrylamino)ethoxy]ethoxy}acetyl) peptide] (Desaminohistidyl-AEGTFTSDVSSYLEEQAAREFIAWLVRGRGK([AEEA-γGlu-Inp-C20 diacid])-OH) | – | 150 to 300 nM |
| CC[C@H](C)[C@H](NC(=O)[C@H](Cc1ccccc1)NC(=O)[C@H](CCC(=O)O)NC(=O)[C@H](CCCNC(=N)N)NC(=O)[C@H](C)NC(=O)[C@H](C)NC(=O)[C@H](CCC(N)=O)NC(=O)[C@H](CCC(=O)O)NC(=O)[C@H](CCC(=O)O)NC(=O)[C@H](CC(C)C)NC(=O)[C@H](Cc1ccc(O)cc1)NC(=O)[C@H](CO)NC(=O)[C@H](CO)NC(=O)[C@@H](NC(=O)[C@H](CC(=O)O)NC(=O)[C@H](CO)NC(=O)[C@@H](NC(=O)[C@H](Cc1ccccc1)NC(=O)[C@@H](NC(=O)CNC(=O)[C@H](CCC(=O)O)NC(=O)C(C)(C)NC(=O)[C@@H](N)Cc1c[nH]cn1)[C@@H](C)O)[C@@H](C)O)C(C)C)C(=O)N[C@@H](C)C(=O)N[C@@H](Cc1c[nH]c2ccccc12)C(=O)N[C@@H](CC(C)C)C(=O)N[C@H](C(=O)N[C@@H](CCCNC(=N)N)C(=O)NCC(=O)N[C@@H](CCCNC(=N)N)C(=O)N[C@@H](CCCCNC(=O)COCCOCCNC(=O)COCCOCCNC(=O)CC[C@H](NC(=O)[C@H]1CC[C@H](CNC(=O)CCCCCCCCCCCCCCCCCCC(=O)O)CC1)C(=O)O)C(N)=O)C(C)C [Example 23, N-epsilon37-[2-(2-{2-[2-(2-{2-[(S)-4-Carboxy-4-({trans-4-[(19-carboxy-nonadecanoylamino)methyl]cyclohexanecarbonyl}amino)butyrylamino]ethoxy}ethoxy)acetylamino]ethoxy}ethoxy)acetyl][Aib8,Glu22,Arg26,Arg34,Lys37]GLP-1-(7-37)amide] | 800 to 2000 nM | – |
| CC[C@H](C)[C@H](NC(=O)[C@H](Cc1ccccc1)NC(=O)[C@H](CCC(=O)O)NC(=O)[C@H](CCCNC(=N)N)NC(=O)[C@H](C)NC(=O)[C@H](C)NC(=O)[C@H](CCC(N)=O)NC(=O)[C@H](CCC(=O)O)NC(=O)[C@H](CCC(=O)O)NC(=O)[C@H](CC(C)C)NC(=O)[C@H](Cc1ccc(O)cc1)NC(=O)[C@H](CO)NC(=O)[C@H](CO)NC(=O)[C@@H](NC(=O)[C@H](CC(=O)O)NC(=O)[C@H](CO)NC(=O)[C@@H](NC(=O)[C@H](Cc1ccccc1)NC(=O)[C@@H](NC(=O)CNC(=O)[C@H](CCC(=O)O)NC(=O)[C@H](C)NC(=O)CCc1c[nH]cn1)[C@@H](C)O)[C@@H](C)O)C(C)C)C(=O)N[C@@H](C)C(=O)N[C@@H](Cc1c[nH]c2ccccc12)C(=O)N[C@@H](CC(C)C)C(=O)N[C@H](C(=O)N[C@@H](CCCNC(=N)N)C(=O)NCC(=O)N[C@@H](CCCNC(=N)N)C(=O)N[C@@H](CCCCNC(=O)COCCOCCNC(=O)COCCOCCNC(=O)C[C@@H](NC(=O)C1CCN(C(=O)CCCCCCCCCCCCCCCCCCC(=O)O)CC1)C(=O)O)C(N)=O)C(C)C [Example 1, N-ε^37{2-[2-(2-{2-[2-((R)-3-carboxy-3-{[1-(19-carboxynonadecanoyl)piperidine-4-carbonyl]amino}propionylamino)ethoxy]ethoxy}acetylamino)ethoxy]ethoxy}acetyl [desaminoHis^7,Glu^22,Arg^26,Arg^34,Lys^37]GLP-1(7-37)amide] | 300 to 800 nM | – |
| CC[C@H](C)[C@H](NC(=O)[C@H](Cc1ccccc1)NC(=O)[C@H](CCC(=O)O)NC(=O)[C@H](CCCNC(=N)N)NC(=O)[C@H](C)NC(=O)[C@H](C)NC(=O)[C@H](CCC(N)=O)NC(=O)CNC(=O)[C@H](CCC(=O)O)NC(=O)[C@H](CC(C)C)NC(=O)[C@H](Cc1ccc(O)cc1)NC(=O)[C@H](CO)NC(=O)[C@H](CO)NC(=O)[C@@H](NC(=O)[C@H](CC(=O)O)NC(=O)[C@H](CO)NC(=O)[C@@H](NC(=O)[C@H](Cc1ccccc1)NC(=O)[C@@H](NC(=O)CNC(=O)[C@H](CCC(=O)O)NC(=O)[C@H](C)NC(=O)CCc1c[nH]cn1)[C@@H](C)O)[C@@H](C)O)C(C)C)C(=O)N[C@@H](C)C(=O)N[C@@H](Cc1c[nH]c2ccccc12)C(=O)N[C@@H](CC(C)C)C(=O)N[C@H](C(=O)N[C@@H](CCCNC(=N)N)C(=O)NCC(=O)N[C@@H](CCCNC(=N)N)C(=O)NCC(=O)N[C@@H](CCCCNC(=O)COCCOCCNC(=O)COCCOCCNC(=O)CC[C@H](NC(=O)C1CCN(C(=O)CCCCCCCCCCCCCCCCCCC(=O)O)CC1)C(=O)O)C(=O)O)C(C)C [Example 59, [DesaminoHis7,Arg26,34]-GLP-1 (7-37)-Lys(2-{2-[2-(2-{2-[2-((S)-4-Carboxy-4-{[1-(19-carboxynonadecanoyl)piperidine-4-carbonyl]amino}butyrylamino)ethoxy]ethoxy}acetylamino)ethoxy]ethoxy}acetyl) peptide] | > 2000 nM | – |
| CC[C@H](C)[C@H](NC(=O)[C@H](Cc1cccc(C(F)(F)F)c1)NC(=O)[C@H](CCC(=O)O)NC(=O)[C@H](CCCNC(=N)N)NC(=O)[C@H](C)NC(=O)[C@H](C)NC(=O)[C@H](CCC(N)=O)NC(=O)[C@H](CCC(=O)O)NC(=O)[C@H](CCC(=O)O)NC(=O)[C@H](CC(C)C)NC(=O)[C@H](Cc1ccc(O)cc1)NC(=O)[C@H](CO)NC(=O)[C@H](CO)NC(=O)[C@@H](NC(=O)[C@H](CC(=O)O)NC(=O)[C@H](CO)NC(=O)[C@@H](NC(=O)[C@H](Cc1ccccc1)NC(=O)[C@@H](NC(=O)CNC(=O)[C@H](CCC(=O)O)NC(=O)[C@H](C)NC(=O)CCc1c[nH]cn1)[C@@H](C)O)[C@@H](C)O)C(C)C)C(=O)N[C@@H](C)C(=O)N[C@@H](Cc1c[nH]c2ccccc12)C(=O)N[C@@H](CC(C)C)C(=O)N[C@H](C(=O)N[C@@H](CCCNC(=N)N)C(=O)NCC(=O)N[C@@H](CCCNC(=N)N)C(=O)N[C@@H](CCCCNC(=O)COCCOCCNC(=O)COCCOCCNC(=O)C[C@@H](NC(=O)C1CCN(C(=O)CCCCCCCCCCCCCCCCC(=O)O)CC1)C(=O)O)C(N)=O)C(C)C [Example 6, N-epsilon37-[2-(2-[2-(2-[2-(2-((R)-3-[1-(17-Carboxyheptadecanoyl)piperidin-4-ylcarbonylamino]3-carboxypropionylamino)ethoxy)ethoxy]acetylamino)ethoxy]ethoxy)acetyl][DesaminoHis7, Glu22 Arg26, Arg 34, Phe(m-CF3)28]GLP-1-(7-37)amide] | – | 800 to 2000 nM |
| CC[C@H](C)[C@H](NC(=O)[C@H](Cc1ccccc1)NC(=O)[C@H](CCC(=O)O)NC(=O)[C@H](CCCNC(=N)N)NC(=O)[C@H](C)NC(=O)[C@H](C)NC(=O)[C@H](CCC(N)=O)NC(=O)CNC(=O)[C@H](CCC(=O)O)NC(=O)[C@H](CCCCNC(=O)COCCOCCNC(=O)COCCOCCNC(=O)C[C@@H](NC(=O)C1CCN(C(=O)CCCCCCCCCCCCCCCCC(=O)O)CC1)C(=O)O)NC(=O)[C@H](Cc1ccc(O)cc1)NC(=O)[C@H](CO)NC(=O)[C@H](CO)NC(=O)[C@@H](NC(=O)[C@H](CC(=O)O)NC(=O)[C@H](CO)NC(=O)[C@@H](NC(=O)[C@H](Cc1ccccc1)NC(=O)[C@@H](NC(=O)CNC(=O)[C@H](CCC(=O)O)NC(=O)C(C)(C)NC(=O)[C@@H](N)Cc1c[nH]cn1)[C@@H](C)O)[C@@H](C)O)C(C)C)C(=O)N[C@@H](CCC(=O)O)C(=O)N[C@@H](Cc1c[nH]c2ccccc12)C(=O)N[C@@H](CC(C)C)C(=O)N[C@H](C(=O)N[C@@H](CCCCN)C(=O)NCC(=O)N[C@@H](CCCNC(=N)N)C(=O)NCC(N)=O)[C@@H](C)OCc1ccccc1 [Example 8, N-ε^20({2-[2-(2-{2-[2-((R)-3-carboxy-3-{[1-(17-carboxyheptadecanoyl)piperidine-4-carbonyl]amino}propionylamino)ethoxy]ethoxy}acetylamino)ethoxy]ethoxy}acetyl) [Aib^8,Lys^20,Arg^28,Glu^30,Thr(O-benzyl)^33]GLP-1-(7-37)amide] (H-H[Aib]EGTFTSDVSSYK([AEEA-AEEA-d(βAsp)-Inp-C18 diacid])EGQAAREFIEWLT(Bn)KGRG-NH2; N-terminus assumed) | 300 to 800 nM | – |
